Reference: PubChem BioAssay AID652027 (The Scripps Research Institute Molecular Screening Center, 2013)
The source made the active and inactive calls.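 How the source made its calls: active means STAT3 reporter signal fold change below 0.5 at 10 µM; inactive means the rest.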

System: U3A cells, IL-6 STAT3 luciferase reporter, luminescence
Assay: IL-6-induced STAT3 luciferase reduction – U3A cells, luminescence, assay provider run, counter-screen for STAT5 inhibitor project, late-stage follow-up (AID 652027)
Details: at 10 µM; stronger effect = lower value

| Compound | fold change |
| --- | --- |
| CN1/C(=C\C(=O)CN2CCc3ccccc3C2)C(C)(C)c2ccccc21 | 1.28 (inactive) |
| CN1/C(=C\C(=O)CN2C(=O)c3ccc([N+](=O)[O-])cc3C2=O)C(C)(C)c2ccccc21 | 0.77 (inactive) |
| O=C(C[n+]1ccc2ccccc2c1)c1ccc2ccccc2c1 | 1.34 (inactive) |
| COC(=O)C1CCCCN1CC(=O)/C=C1/N(C)c2ccccc2C1(C)C (stereo not given) | 1.04 (inactive) |
| Cc1cc[n+](CC(=O)/C=C2\N(C)c3ccccc3C2(C)C)c(C)c1 | 0.61 (inactive) |
| CN1/C(=C\C(=O)C[n+]2cccc(-c3ccccc3)c2)C(C)(C)c2ccccc21 | 0.55 (inactive) |
| CN1/C(=C\C(=O)CN2C(=O)c3ccccc3S2(=O)=O)C(C)(C)c2ccccc21 | 0.82 (inactive) |
| CN1/C(=C\C(=O)Cn2cnc3ccc(Cl)cc3c2=O)C(C)(C)c2ccccc21 | 0.92 (inactive) |
| CCOC(=O)C1CCCN(CC(=O)/C=C2/N(C)c3ccccc3C2(C)C)C1 (stereo not given) | 1.16 (inactive) |
| CC(C)(C)C(=O)C[n+]1ccc2ccccc2c1 | 0.93 (inactive) |
| CN1/C(=C\C(=O)Cn2cc(C(F)(F)F)ccc2=O)C(C)(C)c2ccccc21 | 1.09 (inactive) |
| O=C(C[n+]1ccc2ccccc2c1)c1cc2ccccc2oc1=O | 0.84 (inactive) |
| CN1/C(=C\C(=O)C[n+]2ccccc2)C(C)(C)c2ccccc21 | 0.77 (inactive) |
| CN1/C(=C\C(=O)CN2CCCC2)C(C)(C)c2ccccc21 | 0.72 (inactive) |
| O=C(C[n+]1ccc2ccccc2c1)c1ccccc1 | 1.04 (inactive) |
| COc1ccc2oc(=O)c(C(=O)C[n+]3ccc4ccccc4c3)cc2c1 | 1.15 (inactive) |
| CN1/C(=C\C(=O)Cn2c(=O)c(C#N)cn(C)c2=O)C(C)(C)c2ccccc21 | 1.03 (inactive) |
| CN1/C(=C\C(=O)CN2C(=O)NC(C)(c3ccc(Cl)cc3)C2=O)C(C)(C)c2ccccc21 (stereo not given) | 0.75 (inactive) |
| CN1/C(=C\C(=O)CN2C(=O)c3ccccc3C2=O)C(C)(C)c2ccccc21 | 0.87 (inactive) |
| O=C(C[n+]1ccc2ccccc2c1)Nc1ccccc1 | 1.74 (inactive) |
| CN1/C(=C\C(=O)CN2C(=O)c3ccccc3CS2(=O)=O)C(C)(C)c2ccccc21 | 0.65 (inactive) |
| COc1cccc2cc(C(=O)C[n+]3ccc4ccccc4c3)c(=O)oc12 | 1.17 (inactive) |
| CN1/C(=C\C(=O)CN2C(=O)C3CC=CCC3C2=O)C(C)(C)c2ccccc21 (stereo not given) | 0.7 (inactive) |
| CN1/C(=C\C(=O)Cn2nnc(-c3ccccc3)n2)C(C)(C)c2ccccc21 | 0.62 (inactive) |
| Cc1cc[n+](CC(=O)/C=C2\N(C)c3ccccc3C2(C)C)cc1 | 0.68 (inactive) |
